Data reported in publication PMC8514580, “Insight into the interaction between the RNA helicase CGH-1 and EDC-3 and its implications” (Scientific Reports, 2021).
Residue numbers refer to the chain shown, from its start. No end group written: not given here.

Experiments:
CGH-1_248-420^WT = target: T1, CGH-1_248-420^WT (Caenorhabditis elegans, UniProt Q95YF3); test: ITC binding to CGH-1_248–420 WT; parameters: species or system C. elegans
T1 construct: the cDNA fragments encoding CGH-1 RecA2 (residues 248–420); made in house; host or cells: E. coli Gold (DE3)
T1 sequence (Q95YF3 248-420): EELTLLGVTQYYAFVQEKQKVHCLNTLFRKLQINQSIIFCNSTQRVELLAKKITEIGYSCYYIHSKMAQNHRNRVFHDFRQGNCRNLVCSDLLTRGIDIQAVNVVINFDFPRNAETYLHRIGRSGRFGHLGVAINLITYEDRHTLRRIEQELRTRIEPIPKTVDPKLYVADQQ
Procedure: (§1) Expression plasmids regarding CGH-1 and CAR-1 were constructed as previously described. In brief, the cDNA fragments encoding CGH-1 RecA2 (residues 248–420), CAR-1 FDF-TFG (residues 184–268) were amplified by PCR from C. elegans genome library and cloned into the NdeI and XhoI site of a modified pET-28a (Novagen) vector (p28a), in which a thrombin protease cleavage site was removed.
(§2) CGH-1 protein expression and purification were performed described as in our most recent paper. In brief, proteins were expressed in E. coli Gold (DE3) strain (Novagen). […] Cells were resuspended in Buffer A (20 mM Tris–HCl, pH 7.5, 1 M NaCl), and then lysed using high pressure at 4 °C. Proteins were initially purified by Ni-chelating resin (Qiagen), and further purified by size exclusion chromatography (SEC) on a Superdex 75 column (GE healthcare) in Buffer A. The purified proteins were dialyzed into Buffer B (20 mM Tris–HCl, pH 7.5, 150 mM NaCl).
(§3) A peptide containing the C. elegans EDC-3 FDF fragment (residues 235–271) and PATR-1 fragment (residues 30–67) were synthesized from GL Biochem (Shanghai, China) Co., Ltd, respectively. Stock solutions of peptide were prepared in Buffer B described above, and were adjusted to pH 7.5 ± 0.02 for subsequent experiments.
(§4) ITC assays were performed as previously described. In brief, it was carried out on a MicroCal PEAQ-ITC (Malvern) at 20 °C with the following settings: reference power, 5 μcal/s; initial delay, 60 s; stir speed, 750 rpm; spacing time, 120 s. Proteins (or its mutants) and peptides were adjusted to 0.05 mM and 0.5 mM, respectively. Experiments were initialed by injection of 1 μl each of peptide into the sample cell (200 μl) filled with protein (or its mutants) solution, followed by 18 injections of 2 μl. The ITC data were fitted with a one-binding-site model using the Origin analysis software.

CGH-1_248-420^Q266A = target: T2, CGH-1_248-420^Q266A (Caenorhabditis elegans, UniProt Q95YF3, Q266A); test: ITC binding to CGH-1_248–420 Q266A; parameters: species or system C. elegans; conditions: 20 °C, pH 7.5, 150 mM NaCl, CGH-1 Q266A
T2 construct: the cDNA fragments encoding CGH-1 RecA2 (residues 248–420); made in house; host or cells: E. coli Gold (DE3)
T2 sequence (Q95YF3 248-420 Q266A): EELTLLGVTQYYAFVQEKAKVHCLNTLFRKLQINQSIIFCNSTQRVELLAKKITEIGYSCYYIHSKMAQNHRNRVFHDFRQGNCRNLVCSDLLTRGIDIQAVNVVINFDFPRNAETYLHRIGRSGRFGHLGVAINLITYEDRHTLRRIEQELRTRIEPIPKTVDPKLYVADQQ
Procedure: as §1, §2, §3
(§5) ITC assays were performed as previously described. […]

CGH-1_248-420^H269A = target: T3, CGH-1_248-420^H269A (Caenorhabditis elegans, UniProt Q95YF3, H269A); test: ITC binding to CGH-1_248–420 H269A; parameters: species or system C. elegans; conditions: 20 °C, pH 7.5, 150 mM NaCl, CGH-1 H269A
T3 construct: the cDNA fragments encoding CGH-1 RecA2 (residues 248–420); made in house; host or cells: E. coli Gold (DE3)
T3 sequence (Q95YF3 248-420 H269A): as the sequence (Q95YF3 248-420 Q266A) above, with A19Q, H22A counted along it
Procedure: as §1, §2, §3, §5

CGH-1_248-420^F261A = target: T4, CGH-1_248-420^F261A (Caenorhabditis elegans, UniProt Q95YF3, F261A); type: binding, C. elegans; conditions: ITC, 20 °C, pH 7.5, 150 mM NaCl; CGH-1 F261A
T4 construct: the cDNA fragments encoding CGH-1 RecA2 (residues 248–420); made in house; host or cells: E. coli Gold (DE3)
T4 sequence (Q95YF3 248-420 F261A): as the sequence (Q95YF3 248-420 Q266A) above, with F14A, A19Q counted along it
Procedure: as §1, §2, §3, §4

CGH-1_248-420^K277A = target: T5, CGH-1_248-420^K277A (Caenorhabditis elegans, UniProt Q95YF3, K277A); type: binding, C. elegans; conditions: ITC, 20 °C
T5 construct: the cDNA fragments encoding CGH-1 RecA2 (residues 248–420); made in house; host or cells: E. coli Gold (DE3)
T5 sequence (Q95YF3 248-420 K277A): as the sequence (Q95YF3 248-420 Q266A) above, with A19Q, K30A counted along it
Procedure: as §1, §2, §3, §4

CGH-1_248-420^R393A = target: T6, CGH-1_248-420^R393A (Caenorhabditis elegans, UniProt Q95YF3, R393A); type: binding, C. elegans; conditions: ITC, 20 °C
T6 construct: the cDNA fragments encoding CGH-1 RecA2 (residues 248–420); made in house; host or cells: E. coli Gold (DE3)
T6 sequence (Q95YF3 248-420 R393A): as the sequence (Q95YF3 248-420 Q266A) above, with A19Q, R146A counted along it
Procedure: as §1, §2, §3, §4

CGH-1_248-420^K277E = target: T7, CGH-1_248-420^K277E (Caenorhabditis elegans, UniProt Q95YF3, K277E); test: ITC binding to CGH-1_248–420 K277E; parameters: species or system C. elegans; conditions: 20 °C
T7 construct: the cDNA fragments encoding CGH-1 RecA2 (residues 248–420); made in house; host or cells: E. coli Gold (DE3)
T7 sequence (Q95YF3 248-420 K277E): as the sequence (Q95YF3 248-420 Q266A) above, with A19Q, K30E counted along it
Procedure: as §1, §2, §3, §5

CGH-1_248-420^E396A = target: T8, CGH-1_248-420^E396A (Caenorhabditis elegans, UniProt Q95YF3, E396A); test: ITC binding to CGH-1_248–420 E396A; parameters: species or system C. elegans; conditions: 20 °C
T8 construct: the cDNA fragments encoding CGH-1 RecA2 (residues 248–420); made in house; host or cells: E. coli Gold (DE3)
T8 sequence (Q95YF3 248-420 E396A): as the sequence (Q95YF3 248-420 Q266A) above, with A19Q, E149A counted along it
Procedure: as §1, §2, §3, §5

CGH-1_248-420^4A = target: T9, CGH-1_248-420^4A (Caenorhabditis elegans, UniProt Q95YF3, C270A/H269A/L274A/T273A); test: ITC binding to CGH-1_248–420 4A (H269A, C270A, T273A, L274A); parameters: species or system C. elegans; conditions: CGH-1 4A vs WT
T9 construct: the cDNA fragments encoding CGH-1 RecA2 (residues 248–420); made in house; host or cells: E. coli Gold (DE3)
T9 sequence (Q95YF3 248-420 H269A/C270A/T273A/L274A limits assumed): T1 sequence (Q95YF3 248-420) with H22A, C23A, T26A, L27A
Procedure: as §1, §2, §3, §4

CGH-1_248–420 mutants = test: ITC binding to several CGH-1_248–420 single mutants; parameters: species or system C. elegans; conditions: substitution of each of Phe261, Gln266, His269 with Ala
Procedure: as §1, §2, §3, §5

Sequence: LADPIDFDLDSDFDFAENLKLFEKDENDDQYYETVEK [EDC-3_235–271]
- Kd (CGH-1_248-420^WT): 0.34 ± 0.02 µM
- − TΔS (CGH-1_248-420^WT; ITC, 20 °C, pH 7.5, 150 mM NaCl, CGH-1_248–420 WT): 8.94 kcal/mol
- binding affinity of EDC-3 FDF-FEK motif relative to corresponding region of CAR-1 (by KD) (CGH-1_248-420^WT; ITC, CGH-1_248–420, 0.34 μM (this work) vs 43 μM (ref 17)): > 126 times
- binding affinity relative to CAR-1_184–268 (by KD) (CGH-1_248-420^WT; ITC, CGH-1_248–420 WT, 0.34 μM vs 3.03 μM): approximately ninefold stronger
- − TΔS (CGH-1_248-420^Q266A): 4.34 kcal/mol
- − TΔS (CGH-1_248-420^H269A): 4.97 kcal/mol
- − TΔS (CGH-1_248-420^F261A): 6.17 kcal/mol
- − TΔS (CGH-1_248-420^K277A; pH 7.5, 150 mM NaCl, CGH-1 K277A): 7.74 kcal/mol
- KD(mut) / KD(wt) (CGH-1_248-420^K277A; CGH-1 K277A vs WT): ~ 8.1
- − TΔS (CGH-1_248-420^R393A; pH 7.5, 150 mM NaCl, CGH-1 R393A): 9.68 kcal/mol
- KD(mut) / KD(wt) (CGH-1_248-420^R393A; CGH-1 R393A vs WT): ~ 6.1
- KD(mut) / KD(wt) (CGH-1_248-420^K277E; CGH-1 K277E vs WT): ~ 17.5
- − TΔS (CGH-1_248-420^K277E; pH 7.5, 150 mM NaCl, CGH-1 K277E): 4.48 kcal/mol
- KD(mut) / KD(wt) (CGH-1_248-420^E396A; CGH-1 E396A vs WT): ~ 2.5
- − TΔS (CGH-1_248-420^E396A; pH 7.5, 150 mM NaCl, CGH-1 E396A): 7.92 kcal/mol
- KD(mut) / KD(wt) (CGH-1_248-420^4A; 20 °C): ~ 25.7
- binding affinity compared to wildtype (in words) (CGH-1_248-420^4A): dramatically impaired the binding affinity
- binding affinity compared to wildtype (in words) (CGH-1_248-420^4A; listed as EDC-3 peptide): dramatically disrupted the interaction
- weakening of binding affinity, factor vs WT (CGH-1_248–420 mutants): 3.4–7.5
